From patent US11390582B2, “Polymorphs of 1-(4-benzyloxy-benzyl)-3-methyl-thiourea” (Seoul National University R&DB Foundation, priority 2019, dated 2022) come the findings set out here.

Type in all cases: physicochemical
Data set [1] in a line: Stability test of crystalline forms A and B (25° C./60% RH and 40° C./75% RH, 1 week). As to conditions: for Increase of impurities under given conditions: 25° C./60% RH and 40° C./75% RH; for Increase of impurities under given conditions / Change of crystalline form: in words. The text has this:
Experimental Example 4. Stability Test
(§1) From a pharmaceutical point of view, the stability of an active ingredient is very important. It is not preferable pharmaceutically that impurities are excessively produced or the crystalline form is changed under a storage condition.

A short description of data set [2]: Hygroscopicity test through dynamic vapor sorption (DVS). The note with it: for Hygroscopicity (25° C./80% RH): DVS; for Morphology Change: after DVS hygroscopicity test. The text has this: Experimental Example 3. Hygroscopicity Test Through Dynamic Vapor Sorption (DVS)
From a pharmaceutical point of view, it is desired to maintain the initial moisture and morphology without absorbing moisture even in a moisture environment.

Data set [3] in a line: Stability test under storage condition at room temperature (crystalline form A, up to 6 months). The note with it: for Crystalline form / Purity (%): room temperature storage.
Source text: Experimental Example 5. Stability Test Under Storage Condition
as §1

The mark [4] stands for this setting: storage conditions at room temperature, in words.

As for `CNC(=S)NCc1ccc(OCc2ccccc2)cc1` [Crystalline form A, 1-(4-benzyloxy-benzyl)-3-methyl-thiourea], the “Increase of impurities under given conditions” value in data set [1] is given as “impurities were not increased”. In addition, the Final crystalline form result is “form A” in data set [1] (25° C./60% RH, 1 week) and “form A” in data set [1] (40° C./75% RH, 1 week). The “HPLC Purity (area %)” value is 99.71 area % in data set [1] (25° C./60% RH, 1 week); 99.66 area % in data set [1] (40° C./75% RH, 1 week); 99.55 area % in data set [1] (Initial). In data set [2] (80% moisture condition, in words), the “Moisture content compared between forms” value is listed as “contains less moisture under 80% moisture condition than crystalline form B”. In addition, the “Hygroscopicity (25° C./80% RH)” value in data set [2] amounted to 0.07%. Also, the “Morphology Change” value in data set [2] was “No”. The Crystalline form entry in data set [3] (1 month), in data set [3] (3 months), in data set [3] (6 months) and in data set [3] (Initial) was “form A” each time. For the same molecule, the “Purity (%)” value in data set [3] (1 month), in data set [3] (3 months), in data set [3] (6 months) and in data set [3] (Initial) was 100.0% in each case. Moreover, the “Change of crystalline form” value in data set [3] (setting [4]) was “the crystalline form was not changed”. Further, the Increase of impurities result in data set [3] (setting [4]) was “impurities were not increased”.

As to `CNC(=S)NCc1ccc(OCc2ccccc2)cc1` [Crystalline form B, 1-(4-benzyloxy-benzyl)-3-methyl-thiourea], in data set [1], the “Increase of impurities under given conditions” value was “impurities were not increased”. The Final crystalline form entry in data set [1] (25° C./60% RH, 1 week) is reported as “forms A + B”; in data set [1] (40° C./75% RH, 1 week) it was “form A”. Moreover, the “HPLC Purity (area %)” value is 99.70 area % in data set [1] (25° C./60% RH, 1 week); 99.72 area % in data set [1] (40° C./75% RH, 1 week); 99.49 area % in data set [1] (Initial). In addition, the “Change of crystalline form” value in data set [1] (acceleration condition) was “all changed into crystalline form A”; in data set [1] (storage condition at room temperature), “being changed into crystalline form A”. In addition, the “Hygroscopicity (25° C./80% RH)” value in data set [2] was found to be 0.20%. Besides, in data set [2], the “Morphology Change” value is listed as “No”.
